Measurements from US9073945B2, “Alpha-IIb-beta-3 inhibitors and uses thereof” (THE ROCKEFELLER UNIVERSITY, priority 2006, dated 2015).
Positions of bridges follow the written chain, without caps; N, C: chain ends. Non-standard residues stand in square brackets, D forms with d. Residues, ends and D or L forms follow the SMILES beside them. hArg = N=C(N)NCCCC[C@H](N)C(=O)O; Mpa = O=C(O)CCS

Columns and labels:
[1] = system: platelets in citrated whole blood; experiment: Platelet adhesion under shear stress (cone and plate); format: cell-based, human; conditions: preferred Compound 50 μM, tirofiban 10 μM; 1800 s^−1; n=3
Description: Platelet Adhesion Under Shear Stress. A cone and plate system (Diamed, Cressier, Switzerland) is used to assess the effect of the Compounds on platelet deposition under shear stress. 0.25 ml of citrated whole blood is incubated with nothing, DMSO (0.5%), the Compounds (50 μM), or tirofiban (10 μM) for 15 min at 22° C. and placed in polystyrene wells (16 mm diameter, Nunc). A constant uniform shear force of 1800 s^−1 was applied across the well using a teflon cone for 2 min at 22° C. Wells are washed with buffer, fixed with 1% paraformaldehyde, stained with Wright's Stain (Sigma-Aldrich), and analyzed for platelet adhesion using a 20× objective in an inverted microscope (IX51, Olympus, Center Valley, Pa.). Platelet adhesion is assessed by measuring the area occupied by platelets in each of four uniformly selected viewing areas in duplicate wells using image analysis software (SlideBook, Intelligent Imaging Innovations, Denver, Colo.).

[2] = molecular target: T1, purified αIIbβ3 (Homo sapiens, UniProt P05106+P08514); experiment: Fibrinogen binding to purified αIIbβ3; conditions: for effect of activating mAb AP5 on fibrinogen binding to purified αIIbβ3 in the presence of the substance: AP5 60 μg/ml
T1 construct: purchased Enzyme Research Laboratories, South Bend, Ind
T1 sequence (P08514 32-887 limits assumed): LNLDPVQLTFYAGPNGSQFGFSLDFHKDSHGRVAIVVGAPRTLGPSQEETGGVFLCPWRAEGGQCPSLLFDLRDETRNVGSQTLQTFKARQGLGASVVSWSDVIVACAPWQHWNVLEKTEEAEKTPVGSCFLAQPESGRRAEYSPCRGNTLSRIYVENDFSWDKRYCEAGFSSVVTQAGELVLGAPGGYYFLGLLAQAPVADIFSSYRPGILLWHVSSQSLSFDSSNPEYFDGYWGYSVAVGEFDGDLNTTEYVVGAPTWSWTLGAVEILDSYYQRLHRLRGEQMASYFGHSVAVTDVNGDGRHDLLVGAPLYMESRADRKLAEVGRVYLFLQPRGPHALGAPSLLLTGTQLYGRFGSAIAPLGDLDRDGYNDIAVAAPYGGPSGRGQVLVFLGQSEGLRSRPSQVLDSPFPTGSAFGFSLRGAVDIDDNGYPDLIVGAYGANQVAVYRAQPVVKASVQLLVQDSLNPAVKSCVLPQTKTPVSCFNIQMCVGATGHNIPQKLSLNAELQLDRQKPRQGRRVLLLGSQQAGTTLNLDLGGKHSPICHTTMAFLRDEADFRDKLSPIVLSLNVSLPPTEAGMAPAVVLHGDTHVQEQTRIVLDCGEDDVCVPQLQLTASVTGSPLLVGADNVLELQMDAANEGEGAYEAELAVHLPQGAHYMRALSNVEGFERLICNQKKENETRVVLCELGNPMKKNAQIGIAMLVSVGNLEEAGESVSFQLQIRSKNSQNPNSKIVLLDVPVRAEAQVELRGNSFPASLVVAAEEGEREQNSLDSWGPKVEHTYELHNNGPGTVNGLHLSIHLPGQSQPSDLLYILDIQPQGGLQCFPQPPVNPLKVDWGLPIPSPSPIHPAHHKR
T1 sequence (P08514 891-1039 partner limits assumed): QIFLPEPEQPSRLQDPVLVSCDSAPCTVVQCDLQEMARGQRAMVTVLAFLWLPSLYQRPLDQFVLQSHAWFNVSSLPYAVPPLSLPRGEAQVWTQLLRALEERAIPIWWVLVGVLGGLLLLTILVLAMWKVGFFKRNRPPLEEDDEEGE
T1 sequence (P05106 27-788): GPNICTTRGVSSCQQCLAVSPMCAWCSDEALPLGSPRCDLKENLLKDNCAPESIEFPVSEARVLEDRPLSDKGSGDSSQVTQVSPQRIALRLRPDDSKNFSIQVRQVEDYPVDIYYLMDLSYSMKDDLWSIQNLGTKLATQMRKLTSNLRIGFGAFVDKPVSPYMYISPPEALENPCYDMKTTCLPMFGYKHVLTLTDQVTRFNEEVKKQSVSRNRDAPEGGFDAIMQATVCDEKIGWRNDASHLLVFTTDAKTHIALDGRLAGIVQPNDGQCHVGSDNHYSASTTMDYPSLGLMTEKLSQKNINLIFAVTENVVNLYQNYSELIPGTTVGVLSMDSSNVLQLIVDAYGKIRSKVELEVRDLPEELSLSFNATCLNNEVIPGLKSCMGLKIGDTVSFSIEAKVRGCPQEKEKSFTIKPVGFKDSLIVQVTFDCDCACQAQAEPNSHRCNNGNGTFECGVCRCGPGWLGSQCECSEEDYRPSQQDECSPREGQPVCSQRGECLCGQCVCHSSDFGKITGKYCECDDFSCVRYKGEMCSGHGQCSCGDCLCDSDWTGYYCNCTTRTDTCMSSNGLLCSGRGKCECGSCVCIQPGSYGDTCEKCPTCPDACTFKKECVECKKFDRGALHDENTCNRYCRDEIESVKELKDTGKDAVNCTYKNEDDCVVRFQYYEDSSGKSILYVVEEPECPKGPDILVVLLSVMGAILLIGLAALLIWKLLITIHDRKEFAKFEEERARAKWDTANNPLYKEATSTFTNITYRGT
Description: (§1) Fibrinogen Binding to Purified αIIbβ3. The anti-β3 mAb 7H2 (10 μg/ml) is adsorbed to polystyrene microtiter plate wells overnight at 4° C., and wells are then blocked with 3.5% BSA for 1 h at 22° C. Purified αIIbβ3 (Enzyme Research Laboratories, South Bend, Ind.) is diluted in buffer A (50 mM Tris/HCl, 100 mM NaCl, 1 mM CaCl2, 1 mM MgCl2, 1% BSA, 0.0035% Triton X-100) to 10 μg/ml, and is allowed to adhere to wells coated with mAb 7H2 for 2 h at 37° C. Wells are then washed 3 times with buffer A. Fibrinogen, prepared in buffer A (20 μg/ml) in the presence or absence of mAb AP5 (60 μg/ml), is incubated in plate wells for 2 h at 37° C. with or without the Compounds or control solutions. Wells are washed 3 times with buffer A and then incubated with a horseradish peroxidase-conjugated polyclonal anti-fibrinogen antibody (1:1,000 in buffer A; DAKO, Glostrup, Denmark) for 1 h at 22° C. Wells are washed 3 times, 200 μl of a peroxidase substrate [3,3′,5,5′-tetramethylbenzidine (TMB), Sigma-Aldrich] is added, the reaction is terminated after 30 min by acidification with 50 μl 0.5 M H2SO4, and absorbance is determined at 450 nm. For priming experiments the procedure is the same except: 1) αIIbβ3 is allowed to adhere in the presence of either eptifibatide (10 μM), RGDS (10 μM; Rockefeller University Proteomics Resource Center), the Compounds (100 μM), or DMSO (1%); 2) wells are washed 10 times after αIIbβ3 adhesion; and 3) absorbance is determined at 655 nm after 10 min.

[3] = molecular target: T2, αIIbβ3 (Homo sapiens, UniProt P05106+P08514); experiment: LIBS-specific mAb binding to resting platelets (flow cytometry); format: cell-based; conditions: compound 100 μM
T2 construct: endogenous in cells; host or cells: washed resting platelets from platelet-rich plasma
T2 sequence (P08514 32-887 limits assumed): as the sequence (P08514 32-887 limits assumed) above
T2 sequence (P08514 891-1039 partner limits assumed): as the sequence (P08514 891-1039 partner limits assumed) above
T2 sequence (P05106 27-788): as the sequence (P05106 27-788) above
Description: mAb Binding. PRP anticoagulated with ACD is centrifuged at 1200 g for 8 min and is resuspended in HBMT containing 2 mM Ca^2+, 1 mmMg^2+. Platelet count is adjusted to 250,000/μl. Platelets are incubated with the Compounds (100 μM), tirofiban (100 μM), EDTA (10 mM), or 10E5 (10 μg/ml) for 15 min, at 37° C. Samples are incubated with Fluorescently-labeled monoclonal antibodies (PMI-1, LIBS-1, AP5, 7H2, 7E3, or 10E5; Alexa-488-conjugated, Invitrogen) at 20 μl, 5 μg/ml final concentration for 30 min at room temperature in the dark before diluting 1:10 for analysis on a FACSCalibur flow cytometer (Becton Dickson). Antibody binding is reported as the geometric mean fluorescence intensity; nonspecific binding is determined by adding a 50-fold excess of unlabeled antibody before adding labeled antibody.

[4] = system: platelets; experiment: Fluorescent fibrinogen binding to platelets; format: cell-based; conditions: Homo sapiens, Platelet; AP5 60 μg/ml; read-out: IC50, fibrinogen binding to platelets induced by activating LIBS mAb AP5
Description: (§2) Fluorescent Fibrinogen Binding. Washed platelets at 250,000/μl or αIIbβ3-expressing HEK293 cells at 10×10^6/ml in HBMT with 2 mM Ca^2+/1 mM Mg^2+ are incubated with compounds or controls and 200 μg/ml fluorescent fibrinogen (Invitrogen) with or without 60 μg/ml of the activating mAb AP5 for 30 min at 22° C. in the dark. Unbound fibrinogen is removed by centrifugation at 1800 rpm for 3 min and the platelets are resuspended in HBMT before FACS analysis.

[5] = molecular target: T3, αIIbβ3-expressing HEK293 cells (Homo sapiens, UniProt P05106+P08514); experiment: Fluorescent fibrinogen binding to HEK293 cells; format: cell-based; conditions: AP5 60 μg/ml; n=3; read-out: IC50, AP5-induced fibrinogen binding to HEK293 cells
T3 construct: expressed in transfected cells; host or cells: HEK293
T3 sequence (P08514 32-887 limits assumed): as the sequence (P08514 32-887 limits assumed) above
T3 sequence (P08514 891-1039 partner limits assumed): as the sequence (P08514 891-1039 partner limits assumed) above
T3 sequence (P05106 27-788): as the sequence (P05106 27-788) above
Description: as §2

[6] = system: platelets in citrated PRP; experiment: Platelet aggregation in 96-well plates (secondary screen); format: cell-based, human; conditions: induced by 5 μM ADP; 16.6 μM compound
Description: Platelet Preparation from Peripheral Blood. After informed consent is obtained from healthy human donors who have not taken any medication known to inhibit platelet function for at least 7 days, peripheral venous blood is collected via a 19-gauge butterfly needle into tubes containing either a 10% volume of sodium citrate (3.8%), or a 15% volume of Acid-Citrate-Dextrose (ACD-A, 74.8 mM sodium citrate, 38 mM citric acid, 124 mM dextrose). Platelet-rich plasma (PRP) is prepared by centrifugation at 650 g for 4 minutes at 22° C. and is gently removed with a plastic pipette. Platelet-poor plasma (PPP) is prepared by further centrifugation of the remaining blood at 3000 g for 10 minutes at 22° C. Washed platelets (WP) are prepared by treating ACD-anticoagulated PRP with 1 μM PGE1, adding 0.10 vol ACD, and centrifuge at 1200 g for 8 min at 22° C. […] Platelet counts are determined with the automated particle counter (ADVIA 120 hematological analyzer Bayer).
Platelet Aggregation in 96-well Plates. […] A 66.6 μl sample of citrated PRP from volunteer blood donors is added to compound-containing wells, and plates are allowed to equilibrate to 37° C. in the plate reader (SpectraMax) for 10 minutes. […] Absorbance is measured at 563 nm every 10 seconds with shaking for 3 s between reads for 8 minutes. Percent aggregation is calculated as (AbsPRP−Abssample)/(AbsPRP−AbsPPP).

[7] = molecular target: T1, purified αIIbβ3; experiment: Priming of fibrinogen binding to purified αIIbβ3; conditions: eptifibatide 10 μM, RGDS 10 μM, Compounds 100 μM
Description: as §1

[8] = system: platelets; experiment: Platelet aggregation in aggregometer; format: cell-based, human; conditions: for IC50: Homo sapiens, Platelet
Description: Platelet Preparation from Peripheral Blood. After informed consent is obtained from healthy human donors who have not taken any medication known to inhibit platelet function for at least 7 days, peripheral venous blood is collected via a 19-gauge butterfly needle into tubes containing either a 10% volume of sodium citrate (3.8%), or a 15% volume of Acid-Citrate-Dextrose (ACD-A, 74.8 mM sodium citrate, 38 mM citric acid, 124 mM dextrose). Platelet-rich plasma (PRP) is prepared by centrifugation at 650 g for 4 minutes at 22° C. and is gently removed with a plastic pipette. Platelet-poor plasma (PPP) is prepared by further centrifugation of the remaining blood at 3000 g for 10 minutes at 22° C. Washed platelets (WP) are prepared by treating ACD-anticoagulated PRP with 1 μM PGE1, adding 0.10 vol ACD, and centrifuge at 1200 g for 8 min at 22° C. The platelet pellet is resuspended in HBMT. Platelet counts are determined with the automated particle counter (ADVIA 120 hematological analyzer Bayer).
Platelet Aggregation in Aggregometer. Citrated PRP is incubated with compounds or controls for 15 min 37° C. in 300-500 μl vols in glass aggregometer tubes. Agonists are added after 30 s equilibration in the aggregometer (Kowa) and light transmittance is measured for 8 min. Agonists include ADP, collagen (native type 1 collagen fibrils), restocetin, arachidonic acid, and thrombin receptor activating peptide [TRAP (SFLLRN)].

[9] = molecular target: T4, HEK293 cells expressing αIIbβ3 (Homo sapiens, UniProt P05106+P08514); experiment: HEK293 cell adhesion to fibrinogen; format: cell-based; conditions: compound 100 μM, fibrinogen 50 μg/ml, 2 mM Ca2+/1 mM Mg2+, read-out: inhibition of HEK293 cell adhesion to immobilized fibrinogen
T4 construct: expressed in transfected cells; host or cells: HEK293
T4 sequence (P08514 32-887 limits assumed): as the sequence (P08514 32-887 limits assumed) above
T4 sequence (P08514 891-1039 partner limits assumed): as the sequence (P08514 891-1039 partner limits assumed) above
T4 sequence (P05106 27-788): as the sequence (P05106 27-788) above
Description: (§3) Platelet and Cell Adhesion. Platelets are prepared from ACD-anticoagulated blood as previously described. Cells, either CS1 (αVβ3-expressing) or HEK293 (αIIbβ3-expressing) are separated from culture media by centrifugation at 200 g, 4 min. Cells are resuspended in HBMT containing 1 mM MgCl2 (CS1 cells) and/or 2 mM CaCl2 (HEK293 cells). Polystyrene 96-well microtiter plates (Nunc) are coated with either fibrinogen (50 μg/ml), vitronectin (5 μg/ml), or collagen (33 μg/ml, rat tail type 1, Becton Dickson) for 1 h, and blocked with HBMT for at least 1 h. Platelets and cells are treated with compounds or control solutions for 15 min at 37° C. before they are added to the microtiter wells. After adhering for 1 h at either 22° C. (platelets) or 37° C. (cells), non-adherent platelets or cells are removed by washing 3 times with HBMT containing the same ion composition as the buffer used for adhesion. Adherent platelets or cells are quantified by their endogenous acid phosphatase activity on p-nitrophenyl phosphate (pNPP) (1 mg/ml in 0.1 M sodium citrate, 0.1% Triton X-100, pH 5.4). In other experiments, 8-chambered glass coverslips (Nunc) are coated with collagen (33 μg/ml) for 1 h at 22° C. Washed platelets are allowed to adhere for 1 h at 22° C. and the coverslips are stained with the Alexa-488-conjugated β3-specific mAb 7H2. […]

[10] = system: αVβ3-expressing CS1 cells; experiment: CS1 cell adhesion to vitronectin; format: cell-based; conditions: mAbs 20 μg/ml, compound 100 μM; Mg2+
Description: as §3

Compound: CCCCS(=O)(=O)N[C@@H](Cc1ccc(OCCCCC2CCNCC2)cc1)C(=O)O [tirofiban, reference compound]
- inhibition of platelet deposition under shear, area occupied by platelets vs DMSO [1]: 99±1%
- effect of activating mAb AP5 on fibrinogen binding to purified αIIbβ3 in the presence of the substance [2]: does not increase
- fibrinogen binding to purified αIIbβ3 in the presence of the substance ([2]; microtiter plates): blocked

Compound: CCc1nn2c(=O)cc(N3CCNCC3)nc2s1 [Preferred Compound, 2-ethyl-7-(piperazin-1-yl)-5H-[1,3,4]thiadiazolo-[3,2-a]pyrimidin-5-one]
- binding of β3 LIBS-specific mAb AP5 compared with untreated platelets [3]: do not differ significantly
- binding of β3 LIBS-specific mAb LIBS-1 compared with untreated platelets [3]: do not differ significantly
- mAb Binding (% of tirofiban), AP5 (β3) ([3]; resting washed platelets): 26 ± 5.9 % of tirofiban
- mAb Binding (% of tirofiban), LIBS-1 (β3) ([3]; resting washed platelets): 5.7 ± 6.3 % of tirofiban
- mAb Binding (% of tirofiban), PMI-1 (αIIb) ([3]; resting washed platelets): 44 ± 8.7 % of tirofiban
- mAb Binding (% of tirofiban), PMI-1 (αIIb) ([3]; resting washed platelets, listed as 2-ethyl-7-(piperazin-1-yl)-5H-[1,3,4]thiadiazolo-[3,2-a]pyrimidin-5-one): 44 % of tirofiban
- IC50 [4]: 29 ± 2 µM
- IC50 [5]: 21 ± 0.3 µM
- reduction of the initial slope of aggregation [6]: 84%
- inhibition of platelet deposition under shear, area occupied by platelets vs DMSO [1]: 87±10%
- fibrinogen binding after transient exposure of αIIbβ3 (priming), compared to untreated αIIbβ3 [7]: does not increase
- IC50 ([8]; induced by 5 μM ADP, read-out: IC50, aggregation of platelets in citrated PRP): 13 ± 5 µM
- IC50 ([8]; induced by 5 μM TRAP, n=3, read-out: IC50, aggregation of washed platelets): 3.4 ± 0.4 µM
- IC50 ([8]; induced by 5 μM TRAP, read-out: IC50, aggregation of platelets in citrated PRP): 29 ± 6 µM
- IC50 ([8]; induced by 1 mM arachidonic acid, read-out: IC50, aggregation of platelets in citrated PRP): 8.5 ± 5.7 µM
- platelet aggregation in PRP induced by collagen ([8]; compound 100 μM, collagen 2 μg/ml): completely inhibits
- later phase of ristocetin-induced aggregation of PRP ([8]; ristocetin 1.8 mg/ml, data not shown): does inhibit
- initial slope (initial wave) of ristocetin-induced agglutination/aggregation of PRP ([8]; ristocetin 1.8 mg/ml, mAb 6D1 20 μg/ml): does not inhibit
- inhibition at 100 µM [9]: 53 ± 4%
- effect of activating mAb AP5 on fibrinogen binding to purified αIIbβ3 in the presence of the substance [2]: does not increase
- fibrinogen binding to purified αIIbβ3 in the presence of the substance ([2]; microtiter plates): blocked
- IC50 ([2]; microtiter plates, n=3): 1.6 ± 0.4 µM
- CS1 cell adhesion to immobilized vitronectin [10]: adhere

Compound: N=C(N)NCCCC[C@@H]1NC(=O)CCSSC[C@@H](C(N)=O)NC(=O)[C@@H]2CCCN2C(=O)[C@H](Cc2c[nH]c3ccccc23)NC(=O)[C@H](CC(=O)O)NC(=O)CNC1=O [eptifibatide] ([Mpa][hArg]GDWPC-NH2; disulfide 1-7)
- fibrinogen binding after transient exposure of αIIbβ3 (priming), compared to untreated αIIbβ3 [7]: 150±31%

Compound: RGDS
- fibrinogen binding after transient exposure of αIIbβ3 (priming), compared to untreated αIIbβ3 [7]: 130±7%
